Holding throughout (type): cell-based, human
The subject of one test is FZD5. The test is described as follows: Western blot of FZD5 protein in hpRPE cells under UOS. How it is done: The pellet was re-suspended and denatured in 100 μl of 2× Laemmli sample buffer (Bio-Rad Laboratories) at 95° C. for 5 min. MCAo brain tissue and cell samples were homogenized using RIPA (Thermo Fisher Scientific) buffer supplemented with protease and phosphatase inhibitor cocktails (Sigma). The amount of 30 μg of total protein was loaded in NuPAGE® Novex® 4-12% Bis-Tris precast gels (Life Technologies Corporation) or Mini-PROTEAN TGX Stain free gels 4-15% and ran at constant 120V for 1 hour and 20 min or 250 V for 40 min respectively. Proteins were transferred to μm Nitrocellulose or LF-PVDF membrane using Bio-Rad Trans-Blot® Turbo™ System (Bio-Rad Laboratories). ECL™ Plex Fluorescent Rainbow Markers (GE Healthcare) were used as the ladder for protein's molecular weight. Membranes were blocked using 5% non-fat dry milk (Bio-Rad Laboratories) in TBS with 1% Tween® 20 (TBST-10X) for 1 hour and incubated overnight with primary antibodies. Anti-mouse or anti-rabbit secondary antibodies conjugated with Cy3 or Cy5 were used to visualize the protein of interest. Immunoblots were documented using LAS 4000 imaging system (GE Healthcare Life Sciences) or ChemiDoc MP Imaging System (BioRad Laboratories). A time course exposition was produced in each case to prevent quantification of saturated images. Densitometry data was obtained using ImageQuant™ TL software and XRS Blot Chemi Software (BioRad Laboratories).

Another test has as its system COX-2 promoter. The test can be described thus: COX-2 promoter luciferase reporter assay. The conditions noted are these: for COX-2 promoter activity (luciferase): hRPE cells, +/− 100 nM and 200 nM NPD1. The text has this:
(§1) Except TOP/FOP flash, the Luciferase activity can be standardized using a construct expressing GFP constitutively under CMV virus promoter. To assess luciferase activity, cell lysates can be obtained using Passive Lysis Buffer (Promega, Madison, Wis.) and mixed with a luciferase assay reagent (Promegam Madison, Wis.). Chemiluminescence produced by luciferase and fluorescence from GFP can be detected using Appliscan 2.3. Data can be analyzed using SkanIt 2.3 (Thermo Fisher Scientific, Waltham, Mass.).
A, Design of luciferase reporter assay performed with COX-2 promoter construct. UOS was induced by the addition of 10 ng/ml TNFα and 600 μM H2O2 in ARPE-19 cells. The concentrations of Wnt5a used was 50 ng/ml. Cells were co-transfected with the constructs driving the expression of luciferase and a plasmid that constitutively expressed green fluorescent protein for standardization. Luciferase activity is denoted in luciferase activity units (LUC) and standardized using GFP fluorescent (GFP). B, Wnt5a and IL-1β effect time course on COX-2 promoter activity. […] Luciferase activity (LUC) was measured in ARPE-19 cells in the presence of 50 ng/ml Wnt5a or 20 ng/ml IL1-β. […] Luciferase activity measured in cells incubated with 50 ng/ml Wnt5a in the presence or absence of 100 nM (+) and 200 nM (++) NPD1.
Background: In a reporter assay the amount or activity of a reporter protein is the signal.

For another test, the system named is β-catenin. The test is described as follows: TOP Flash/FOP flash luciferase reporter in hpRPE cells. The conditions noted are these: hpRPE cells undergoing UOS+/−NPD1.
Text: We tested whether or not Wnt5a activates […] using TOP Flash/FOP flash reporter system in hpRPE cells undergoing UOS+/−NPD1 (FIG. 1g).
as §1
(§2) Except TOP/FOP flash, the Luciferase activity was standardized using a construct expressing GFP constitutively under CMV virus promoter. To assess luciferase activity, cell lysates were obtained using Passive Lysis Buffer (Promega) and mixed with a luciferase assay reagent (Promega). Chemiluminescence produced by luciferase and fluorescence from GFP was detected using Appliscan 2.3. Data were analyzed using SkanIt 2.3 (Thermo Fisher Scientific).

A further test has as its system NF-κB/p65. The test can be described thus: NF-κB/p65 luciferase reporter assay in hpRPE cells. The protocol:
We asked if Wnt5a activates inflammatory signaling to enhance apoptosis mediated by UOS by assessing COX-2 promoter activation (FIG. 10). […] To compare Wnt5a effects with other cytokines that enhance COX-2 expression, Interleukin-1β (IL-1β) activity was measured. […] To determine if Wnt5a activates NF-κB, hpRPE were transfected with a construct that encompassed three p65 high-affinity binding sites in tandem, driving the expression of the luciferase reporter gene (FIG. 1G). […] To assess whether or not FDZ5 and ROR2 were involved in NF-κB activation by Wnt5a, cells were co-transfected with siRNAs targeting the two receptors (FIG. 11).
as §1, §2

[1] abbreviates: hpRPE under UOS in the presence of Wnt5a 50 ng/ml, NPD1 100 or 200 nM, Pitstop2 25 μM.

“Also recorded” adds a separate entry of the source. * marks the point of attachment. Boc = CC(C)(C)OC(=O)*

With `CC/C=C\C[C@H](O)\C=C/C=C/C=C/[C@H](O)C/C=C\C/C=C\CCC(=O)O` [NPD1, 10R,17S-dihydroxy-docosa-4Z,7Z,11E,13E,15Z,19Z-hexaenoic acid], the FZD5 protein abundance entry is recorded as “steep decrease in the receptor content” in the test on FZD5 (100 nM NPD1, Wnt5a present) and “no differences in the FZD5 receptor were observed” with FZD5 (100 nM NPD1, absence of Wnt5a). Moreover, the “COX-2 promoter activity (luciferase)” value with COX-2 promoter (50 ng/ml Wnt5a) is “down by half; also recorded: prevents Wnt5a-induced activation of COX-2 promoter”. The “β-catenin activity (luciferase)” value in the test with β-catenin is on record as “not significantly altered”. The “NF-κB/p65 activation (luciferase)” value with NF-κB/p65 (setting [1]) is “reduced luciferase activity; also recorded: affects its activation when Wnt5a is added”; in the test on NF-κB/p65 (hpRPE under UOS, no Wnt5a added), “did not affect NF-κB/p65; also recorded: does not prevent activation of NF-κB triggered by UOS; also recorded: did not affect NFkB/p65”. The “NF-κB activation in cells co-transfected with ROR2 and FZD5 siRNAs” value in the test with NF-κB/p65 (hpRPE under UOS, double knockdown) is “not affected”.

On to “t-Boc-NH-Met-Asp-Gly-Cys-Glu-Leu-CO2H (Boc-MDGCEL-OH) [Box5]”, for which the FZD5 protein abundance entry with FZD5 (Box5, even in the presence of Wnt5a 50 ng/ml) is recorded as “decreased FZD5 abundance by half of the level”.

B1: Wnt5a: Recombinant Human/Mouse Wnt-5a Protein, CHO-derived (Gln38-Lys380), R&D systems 645-WN (protein)
chain: QVVIEANSWWSLGMNNPVQMSEVYIIGAQPLCSQLAGLSQGQKKLCHLYQDHMQYIGEGAKTGIKECQYQFRHRRWNCSTVDNTSVFGRVMQIGSRETAFTYAVSAAGVVNAMSRACREGELSTCGCSRAARPKDLPRDWLWGGCGDNIDYGYRFAKEFVDARERERIHAKGSYESARILMNLHNNEAGRRTVYNLADVACKCHGVSGSCSLKTCWLQLADFRKVGDALKEKYDSAAAMRLNSRGKLVQVNSRFNSPTTQDLVYIDPSPDYCVRNESTGSLGTQGRLCNKTSEGMDGCELMCCGRGYDQFKTVQTERCHCKFHWCCYVKCKKCTEIVDQFVCK
For B1, the “time of peak COX-2 promoter activity after addition” value in the test on COX-2 promoter (ARPE-19 cells, 50 ng/ml Wnt5a) worked out at 4 h. For the same molecule, the “COX-2 promoter activation (luciferase)” value in the test with COX-2 promoter (ARPE-19 cells, 50 ng/ml Wnt5a or 20 ng/ml IL1-β) is on record as “induced COX-2 promoter activation”. For the same molecule, the “COX-2 promoter activity (luciferase)” value with COX-2 promoter (50 ng/ml Wnt5a) was “increased COX-2 activation”. Besides, the “β-catenin activity (luciferase)” value with β-catenin was “did not affect β-catenin; also recorded: does not affect activation of β-catenin”. Besides, the “NF-κB/p65 activation (luciferase)” value in the test on NF-κB/p65 (setting [1]) is “heightens NF-κB activation; also recorded: heightened NFkB activation”.

The values are drawn from US20220119446A1, “BIOMARKERS AND TREATMENT OF NEURONAL INJURY AND NEURODEGENERATION” (Board of Supervisons of Louisiana State University and …, priority 2018, published 2022).
